Values after ≈ are worked out from the molar mass of the structure shown. Residues, ends and D or L forms follow the SMILES beside them.
Tests used:
[1] = tested on: Enterococcus faecalis ATCC29212; assay type: cell-based; conditions: ATCC29212
Outline: (§1)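 First, peptides were serially diluted at ten times final strength in 0.01% acetic acid with 0.2% BSA. These were then added to Mueller Hinton medium and inoculated with overnight-grown organisms at 2-7×10^5 CFU/ml. After overnight incubation at 37° C, the MIC was scored as the concentration without growth.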

[2] = tested on: Staphylococcus aureus ATCC25923; assay type: cell-based; conditions: ATCC25923
Outline: as §1

[3] = tested on: clinical isolates of MRSA; assay type: cell-based, Staphylococcus aureus
Description: (§2) Minimal inhibitory concentration (MIC) determination. The MIC of the peptides were measured using a modified broth microdilution method in Mueller Hinton (MH) medium (Wu M, Hancock R E W. 1999. Interaction of the cyclic antimicrobial cationic peptide bactenecin with the outer and cytoplasmic membrane. J Biol Chem 274, 29-35). Briefly, the peptides were dissolved and stored in glass vials. The assay was performed in sterile 96-well polypropylene microtitre plates were used. Serial dilutions of the peptides to be assayed were performed in 0.01% acetic acid (Fisher) containing 0.2% bovine serum albumin (Boehringer Mannheim GmbH) at 10× the desired final concentration. Ten microlitres of the 10× peptides were added to each well of a 96-well polypropylene plate containing 90 μl of MH media per well. Bacteria were added to the plate from an overnight culture at 2-7×10^5 colony forming units/ml and incubated over night at 37° C. The MIC was taken as the concentration at which no growth was observed.
(§3) All peptides derived from the 1st, 2nd, and 3rd quartiles were further evaluated for their antibacterial activities against several highly antibitoic resistant pathogens (Table 3). These included clinical isolates of MRSA, ESBL E. cloacae, and multidrug resistant Pseudomonas strains including Brazilian clinical isolates of P. aeruginosa that are resistant to meropenem, ceftazidime, piperacillin/tazobactam, ciprofloxacin, cefepime and polymyxin B, and the Liverpool Epidemic Strains. […] Such results characterize the developed peptides as excellent antibiotic candidates, providing new means for treating most dangerous and severe forms of human infections.

ESBL E. cloacae = assay type: cell-based, Enterobacter cloacae
Description: as §2, §3

[4] = tested on: Liverpool Epidemic Strains; assay type: cell-based, Pseudomonas aeruginosa
Description: as §2, §3

[5] = tested on: multidrug resistant Brazilian clinical isolates of P. aeruginosa; assay type: cell-based, Pseudomonas aeruginosa
Description: as §2, §3

[6] = tested on: MCP-1 release by human PBMC; assay: Chemokine induction in PBMC (capture ELISA); assay type: cell-based; conditions: background (204) subtracted
Outline: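 Heparinized blood from healthy volunteers; Ficoll-isolated human PBMC (7.5×10^5) treated with peptides at 20 or 100 μg/ml for 24 hours at 37° C, 5% CO2. Cell-free supernatants assayed for MCP-1 by capture ELISA.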

[7] = tested on: MCP-3 release by human PBMC; assay: Chemokine induction in PBMC (capture ELISA); assay type: cell-based; conditions: background (6) subtracted
Outline: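 Human PBMC from healthy donors (Ficoll-isolated), 7.5×10^5 cells at 0.75–1×10^6 cells/ml, treated with peptides at 20 or 100 μg/ml for 24 h at 37° C, 5% CO2. MCP-3 in cell-free supernatants measured by capture ELISA.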

[8] = tested on: CXCL1 (Gro-α) release by human PBMC; assay: Chemokine induction in PBMC (capture ELISA); assay type: cell-based; conditions: background (196) subtracted
Outline: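 Human PBMC from healthy donors' heparinised blood (Ficoll), 7.5×10^5 cells treated with 20 or 100 μg/ml peptide for 24 h at 37° C, 5% CO2. Cell-free supernatants assayed for CXCL1 by capture ELISA.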

[9] = tested on: ESBL E. coli clinical strain 64771; assay type: cell-based; conditions: ESBL clinical strain 64771
Description: as §2
(§4) The selected peptides were synthesized and assayed against several major antibiotic-resistant pathogens. Initially, the peptides were screened against the laboratory strain of P. aeruginosa PAO1 to compare the results with the training data. […] The antibacterial activity in the form of minimal inhibitory concentration (MIC) of the other studied peptides was assessed in greater depth (Table 9) against many highly antibiotic resistanct pathogens.

[10] = tested on: ESBL Klebsiella pneumonia clinical strain 63575; assay type: cell-based
Description: as §2, §4

[11] = tested on: multidrug resistant Pseudomonas maltophilia ATCC13637; assay type: cell-based
Description: as §2, §4

[12] = tested on: Pseudomonas aeruginosa PAO1 strain H103; assay type: cell-based; conditions: for antimicrobial activity against P. aeruginosa PAO1 (in words): laboratory strain P. aeruginosa PAO1
Outline: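 Modified broth microdilution MIC in Mueller Hinton medium, peptides diluted in 0.01% acetic acid/0.2% BSA, polypropylene plates. Inoculum 2-7×10^5 CFU/ml, overnight at 37 °C; MIC is the lowest concentration with no visible growth.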

SMILES | MIC [1] [µM] | MIC [2] [µM] | MIC [3] [µM] | MIC (ESBL E. cloacae) [µM] | MIC [4] [µM] | MIC [5] [µM] | MIC [9] [µM] | MIC [10] [µM] | MIC [11] [µM] | MIC against P. aeruginosa PAO1 ([12]; PAO1) [µM] | Chemokine induction MCP-1 ([6]; 20 μg/ml peptide) [pg/mL] | Chemokine induction MCP-1 ([6]; 100 μg/ml peptide) [pg/mL] | Chemokine induction MCP-3 ([7]; 20 μg/ml peptide) [pg/mL] | Chemokine induction MCP-3 ([7]; 100 μg/ml peptide) [pg/mL] | Chemokine induction Gro-α ([8]; 20 μg/ml peptide) [pg/mL] | Chemokine induction Gro-α ([8]; 100 μg/ml peptide) [pg/mL] | antimicrobial activity against P. aeruginosa PAO1 (in words) [12]
CC(C)C[C@H](NC(=O)[C@H](Cc1c[nH]c2ccccc12)NC(=O)[C@H](Cc1c[nH]c2ccccc12)NC(=O)[C@H](CCCCN)NC(=O)[C@H](Cc1c[nH]c2ccccc12)NC(=O)[C@H](CCCNC(=N)N)NC(=O)[C@H](CCCNC(=N)N)NC(=O)[C@H](Cc1c[nH]c2ccccc12)NC(=O)[C@@H](N)CCCNC(=N)N)C(N)=O [HHC9, RWRRWKWWL] (H-RWRRWKWWL-NH2; N-terminus assumed) | 23 (≈ 33.9 µg/mL) | 3 (≈ 4.42 µg/mL) | 3 (≈ 4.42 µg/mL) | 6 (≈ 8.83 µg/mL) | 0.3 (≈ 0.442 µg/mL) | 12 (≈ 17.7 µg/mL) | 3 (≈ 4.42 µg/mL) | 11 (≈ 16.2 µg/mL) | 0.7 (≈ 1.03 µg/mL) | – | 9 | 4493 | -1 | 48 | -25 | 5 | –
N=C(N)NCCC[C@H](NC(=O)[C@H](Cc1c[nH]c2ccccc12)NC(=O)[C@H](CCCCN)NC(=O)[C@H](CCCCN)NC(=O)[C@H](Cc1c[nH]c2ccccc12)NC(=O)[C@H](Cc1c[nH]c2ccccc12)NC(=O)[C@H](CCCNC(=N)N)NC(=O)[C@H](CCCCN)NC(=O)[C@@H](N)Cc1c[nH]c2ccccc12)C(N)=O [HHC45, WKRWWKKWR] (H-WKRWWKKWR-NH2; N-terminus assumed) | 93 (≈ 136 µg/mL) | 68 (≈ 99.2 µg/mL) | 6 (≈ 8.75 µg/mL) | 93 (≈ 136 µg/mL) | 6 (≈ 8.75 µg/mL) | 46 (≈ 67.1 µg/mL) | 3 (≈ 4.38 µg/mL) | 46 (≈ 67.1 µg/mL) | 1.4 (≈ 2.04 µg/mL) | – | -9 | 161 | -2 | -2 | -15 | -32 | –
CC[C@H](C)[C@H](NC(=O)[C@H](CCCCN)NC(=O)[C@H](Cc1c[nH]c2ccccc12)NC(=O)[C@H](Cc1c[nH]c2ccccc12)NC(=O)[C@H](CCCNC(=N)N)NC(=O)[C@@H](N)Cc1c[nH]c2ccccc12)C(=O)N[C@@H](Cc1c[nH]c2ccccc12)C(=O)N[C@@H](CCCCN)C(=O)N[C@@H](CCCNC(=N)N)C(N)=O [HHC20, WRWWKIWKR] (H-WRWWKIWKR-NH2; N-terminus assumed) | 24 (≈ 34.7 µg/mL) | 3 (≈ 4.33 µg/mL) | 3 (≈ 4.33 µg/mL) | 12 (≈ 17.3 µg/mL) | 1.5 (≈ 2.17 µg/mL) | 24 (≈ 34.7 µg/mL) | 6 (≈ 8.66 µg/mL) | 24 (≈ 34.7 µg/mL) | 0.8 (≈ 1.16 µg/mL) | – | 290 | 974 | 8 | 12 | 169 | 33 | –

More lines, main results first:

MIC [1] [µM] | MIC [2] [µM] | MIC [3] [µM] | MIC (ESBL E. cloacae) [µM] | MIC [4] [µM] | MIC [5] [µM] | MIC [9] [µM] | MIC [10] [µM] | MIC [11] [µM] | MIC against P. aeruginosa PAO1 ([12]; PAO1) [µM] | SMILES | Chemokine induction MCP-1 ([6]; 20 μg/ml peptide) [pg/mL] | Chemokine induction MCP-1 ([6]; 100 μg/ml peptide) [pg/mL] | Chemokine induction MCP-3 ([7]; 20 μg/ml peptide) [pg/mL] | Chemokine induction MCP-3 ([7]; 100 μg/ml peptide) [pg/mL] | Chemokine induction Gro-α ([8]; 20 μg/ml peptide) [pg/mL] | Chemokine induction Gro-α ([8]; 100 μg/ml peptide) [pg/mL] | antimicrobial activity against P. aeruginosa PAO1 (in words) [12]
93 (≈ 136 µg/mL) | 1.4 (≈ 2.04 µg/mL) | 39 (≈ 56.9 µg/mL) | 23 (≈ 33.6 µg/mL) | 6 (≈ 8.75 µg/mL) | 46 (≈ 67.1 µg/mL) | 3 (≈ 4.38 µg/mL) | 46 (≈ 67.1 µg/mL) | 1.4 (≈ 2.04 µg/mL) | – | N=C(N)NCCC[C@H](NC(=O)[C@H](CCCNC(=N)N)NC(=O)[C@H](CCCCN)NC(=O)[C@H](Cc1c[nH]c2ccccc12)NC(=O)[C@H](Cc1c[nH]c2ccccc12)NC(=O)[C@H](CCCCN)NC(=O)[C@H](CCCCN)NC(=O)[C@@H](N)Cc1c[nH]c2ccccc12)C(=O)N[C@@H](Cc1c[nH]c2ccccc12)C(N)=O [HHC48, WKKWWKRRW] (H-WKKWWKRRW-NH2; N-terminus assumed) | 2 | 12 | -1 | -1 | -8 | -10 | –
>217 | 54 (≈ 67.7 µg/mL) | 54 (≈ 67.7 µg/mL) | 108 (≈ 135 µg/mL) | 217 (≈ 272 µg/mL) | >217 | 108 (≈ 135 µg/mL) | >217 | 108 (≈ 135 µg/mL) | – | CC[C@H](C)[C@H](NC(=O)[C@H](C)N)C(=O)N[C@@H](CCCNC(=N)N)C(=O)N[C@@H](CCCNC(=N)N)C(=O)N[C@@H](Cc1c[nH]c2ccccc12)C(=O)N[C@@H](CCCNC(=N)N)C(=O)N[C@H](C(=O)N[C@@H](CCCNC(=N)N)C(=O)N[C@@H](CCCCN)C(N)=O)[C@@H](C)CC [HHC142, AIRRWRIRK] (H-AIRRWRIRK-NH2; N-terminus assumed) | 67 | -16 | 1 | 0 | 59 | 22 | did not return any generally active substances
241 (≈ 272 µg/mL) | 241 (≈ 272 µg/mL) | 241 (≈ 272 µg/mL) | 241 (≈ 272 µg/mL) | 241 (≈ 272 µg/mL) | >241 | 241 (≈ 272 µg/mL) | >241 | 60 (≈ 67.7 µg/mL) | – | CC[C@H](C)[C@H](NC(=O)[C@H](CCCCN)NC(=O)[C@H](CC(C)C)NC(=O)[C@@H](NC(=O)[C@@H](N)C(C)C)C(C)C)C(=O)N[C@H](C(=O)N[C@@H](CCCNC(=N)N)C(=O)N[C@@H](CCCNC(=N)N)C(=O)N[C@@H](Cc1ccccc1)C(N)=O)C(C)C [HHC148, VVLKIVRRF] (H-VVLKIVRRF-NH2; N-terminus assumed) | 25 | 210 | 1 | 3 | 55 | 60 | did not return any generally active substances
24 (≈ 33.7 µg/mL) | 3 (≈ 4.21 µg/mL) | 3 (≈ 4.21 µg/mL) | 6 (≈ 8.43 µg/mL) | 3 (≈ 4.21 µg/mL) | 24 (≈ 33.7 µg/mL) | 12 (≈ 16.9 µg/mL) | 97 (≈ 136 µg/mL) | 1.5 (≈ 2.11 µg/mL) | 4 to 12 | CC[C@H](C)[C@H](NC(=O)[C@H](CCCCN)NC(=O)[C@H](Cc1c[nH]c2ccccc12)NC(=O)[C@@H](N)CCCCN)C(=O)N[C@@H](Cc1ccccc1)C(=O)N[C@@H](CCCNC(=N)N)C(=O)N[C@@H](CCCNC(=N)N)C(=O)N[C@@H](Cc1c[nH]c2ccccc12)C(=O)N[C@@H](Cc1c[nH]c2ccccc12)C(N)=O [HHC71, KWKIFRRWW] (H-KWKIFRRWW-NH2; N-terminus assumed) | -6 | 99 | 0 | 2 | -17 | 1 | –

From patent US8343475B2, “Small cationic antimicrobial peptides” (priority 2006, dated 2013)
